One molecule from patent US20250144187A1, “COMBINATION OF HYDROLASES AND ANTI-MICROORGANISM DRUGS AND USES THEREOF” (CENTRE FOR EYE AND VISION RESEARCH LIMITED, priority 2023, published 2025) can be followed below.

Read-outs that look alike come from different tables or passages of the source.

The test system of one test is MRSA. Nature of the test: Nascent protein synthesis analysis (OPP probe). Type of test: cell-based. As to conditions: Staphylococcus aureus, 1 h, read-out: minimal dosage of tedizolid phosphate for synthesis inhibition of half of the nascent protein. Here is the method: 12) Nascent protein synthesis analysis. According to the previously reported method [Forester, C. M et al., Proc. Nat. […] Specifically, mid-log-phase MRSA with OD600 of 0.4 to 0.6 was treated with lysozyme, tedizolid phosphate or their combination at different concentrations at 37° C. for 1 hour. These bacteria served as related negative control groups. Positive control groups had similar protocols but with addition of 20 μM OPP. After 1 hour incubation, all bacteria were collected washed by cold PBS for 3 times and fixed by 3.7% formaldehyde in PBS, followed by re-suspension in lysis buffer containing 0.5% Triton® X-100. Then, these fixed and permeabilized cells were incubated with Click-iT™ plus OPP reaction cocktail according to the standard protocol [Forester, C. M et al., Proc. Nat. Acad. U.S.A. 115, 2353-2358 (2018)]. After 30 minutes incubation in the prevention of light at room temperature, the reaction cocktail was removed. Next, these fixed cells in 96-well plate were washed by using 200 μl/well of Click-iT® reaction rinse buffer, followed by further incubation with 1×HCS nuclear Mask™ blue stain working solution. After 30 minutes incubation in the prevention of light at room temperature, the nuclear Mask™ blue stain working solution was removed. […] Inhibition degrees of nascent proteins synthesis were expressed with fluorescence ratio (Alexa Fluor®/nuclear Mask™) as average±SD. […]

Test [1] concerns alkaline phosphatase extracted from MRSA. Nature of the test: Enzyme activity of alkaline phosphatase (in vitro hydrolysis of tedizolid phosphate). Type of test: biochemical, Staphylococcus aureus. The note with it: enzyme from MRSA of the combination therapy group, after 1 hour. Here is the method: 14) Enzyme activity of alkaline phosphatase. All enzyme activities of alkaline phosphatase were analyzed according to the modified method as previously described [Zhao, X.-y et al., Nature 46, 86-90 (2009); Zhang, XC e al., Anal. Chem. 92, 5185-5190 (2020); Rosch, J. & Caparon, M. Science 304, 1513-1151 (2004); Wang. W et al., PLoS One 10, e012403512013); Ghosh, S. S et al., Circ. Res. 128, 1646-1659 (2021)]. Briefly, mid-log-phase MRSA or MRSE was treated with lysozyme, tedizolid phosphate or their combination at different concentrations. Those without any treatment served as untreated group. After incubation at 37° C. for 1 hour, all samples were collected, washed by distilled water and re-suspended in distilled water to collect bacterial suspension with an initial density of about 5.0×10^12 CFU/ml according to pre-experiment. Then, sonication lysis for 40 minutes at 4° C. and centrifugation at 18,000 g at 4° C. for 20 minutes were performed to collect these supernatants. Next, 20 μl of each supernatant was incubated with 4 μg of tedizolid phosphate. […] These slides were visualized under fluorescence microscopy and randomly selected bacteria were analyzed at ×1,500 magnification. To quantify the enzyme activity, similar protocol was performed on cell lysis supernatant instead of above-described bacterial suspension. Finally, absorption spectrums (300-800 nm) were collected and analyzed. […]

For another test, the system named is MRSA-infected skin wound. Description: Rat skin infection model, tedizolid phosphate/lysozyme. Type of test: in vivo, Sprague Dawley (SD) rats. As to conditions: combination therapy. Here is the method: 19) Skin infection model. […] Except 3 rats in uninfected group, other 12 rats were infected by 5×10^11 CFUs of mid-log phase MRSA from our own collection. Briefly, all rats were firstly pec-depilated by using 10% Na2S to get an uncovered back area of 4 cm×4 cm before 24 hours for the anesthetization on rats. Then, the skin of anesthetized rat was removed until fascial region under sterile condition, followed by spraying 5.0×10^11 CFUs of mid-log phase MRSA on wound (3 cm×3 cm). Bacterial suspensions were collected by below-described method [Zhang. […] Specifically, mid-log phase MRSA was collected by centrifugation at 4500 g for 15 minutes, washed with PBS for 3 limes and re-suspended in cold PBS to get bacterial suspension with an initial density of about 4.0×10^11 CFU/ml according to pre-experiment. Next, 1.25 ml of bacterial suspension was sprayed onto wound. […] All sterile medical gauzes were 0.2 g/cm^2, and further covered by two layers of sterile gauzes and fixed by sterile tapes. Next, rats were monitored until they were fully awake, and then returned to their cages. After 24 hours infection, these sterile medical gauzes were replaced with new sterile medical gauzes soaking different drugs, i.e., normal saline, tedizolid phosphate (0.167 mg/kg) or lysozyme (0.833 mg/kg), or their combination (0.167 mg tedizolid phosphates/kg rat+0.833 mg lysosyme/kg rat), respectively. Meanwhile, rats in uninfected group were treated with new sterile medical gauzes soaking normal saline. All steps were repeated at 48-, 72-, 96-, 120- and 144-hr post-inoculation. At 168 hours post-inoculation, all rats were sacrificed to collect their wounds. These collected tissues were fixed in 10% formalin for at least 24 hours and embedded in paraffin. Next, about 4-μm sections were analyzed by using the hematoxylin and eosin (H-E) staining kit. […] Meanwhile, this homogenate was also 10-fold gradient-diluted in 96-well plate to figure out the bacterial load in infected wound according to quantitative grown colony after overnight culture. […]

Consider `Cn1nnc(-c2ccc(-c3ccc(N4C[C@H](COP(=O)(O)O)OC4=O)cc3F)cn2)n1` [tedizolid phosphate, Tedizolid Phosphate], for which the IC50 was determined as 0.32 µg/mL in the test with MRSA (combination with 0.5 mg/ml lysozyme) and 9.5 µg/mL with MRSA (monotherapy). Besides, the tedizolid phosphate hydrolyzed result in test [1] is reported as “up to 65%”. The “decrease in the level of IL-6” value in the test on MRSA-infected skin wound (7 days) was “more than 20%”. Moreover, the “decrease in the level of ROS” value in the test with MRSA-infected skin wound (7 days) is reported as more than 70%. The “reduction of bacterial load in the wound” value with MRSA-infected skin wound (168 hours post-inoculation) is reported as > 10^6 fold.
